Results on one substance are retold here after patent publication US6855490B2, “Method for attaching biological molecules to a glass surface” (Medical Discovery Partners LLC, priority 1999, dated 2005).

Assay [1] concerns the target 1D5 monoclonal antibody. The assay is described as follows: Fluorescence polarization assay of synthetic ER peptides. More on the design: species or system mouse. To be noted: binding to 1D5 monoclonal antibody, FITC-labelled peptide. As to the method:
Large quantities of each of the selected phage are grown and nucleic acid extracted for sequence analysis. Based on the nucleotide sequence coding for the inserted ten-mer peptide, corresponding peptides are synthesized. Numerous commercial vendors provide peptide synthesis capabilities. The binding affinity of each of the selected peptide sequences for their antibodies is determined using Scatchard analysis. The percentage of antibodies binding to the peptide can be ascertained using fluorescence polarization analysis, provided that the peptide is fluorescently labeled. The specificity of binding for each peptide antigen mimic is tested using irrelevant, isotype-matched antibodies.
(§1) Three synthetic peptides (designated as ER peptide 3, ER peptide 4, and ER peptide 6), that are representative of above consensus phage sequence, were synthesized (by SynPep Labs, Dublin, Calif. and Bachem Labs, King of Prussia, Pa.) and tested for specificity/affinity to 1D5 monoclonal antibody.
In general terms: Polarisation of emitted light reports the rotation of a fluorescent probe.

For assay [2], the system named is 1D5 monoclonal antibody. Briefly: Peptide ELISA of synthetic ER peptides. Type of assay: binding, mouse. Particulars: compared among ER peptides 3, 4 and 6.
Excerpt: as §1
Background: ELISA stands for enzyme-linked immunosorbent assay.

Primed or numbered codes have the meaning given here. FITC′ = fluorescein group attached to the epsilon side chain of lysine

As to “Ac-DFQCPYVECVVNAPGGK(FITC)GK-CONH2 (Ac-DFQCPYVECVVNAPGGK(FITC′)GK-NH2; cysteine pairing not given here) [ER peptide 3]”, the Kd – broadly, the free concentration of one partner at which half of the binding sites on the other are occupied at equilibrium, for simple one-to-one binding – in assay [1] is approximately 1 nM. Besides, in assay [2], the “Peptide ELISA signal” value is listed as “highest signal”.
